Laboratory results from the Kinase Knowledgebase extract (Sharma et al. 2016).

Target: CDK2 (human) (UniProt P24941)
Assay: Enzyme Assay
Settings: not given

Ki	Structure (SMILES)
0.0018 µM	Nc1nc(NC2CCN(S(=O)(=O)c3ccc(CCN4CCC(c5ccccc5)C4)nc3)CC2)sc1C(=O)c1c(F)cccc1F (stereo not given)
0.5 µM	CC(=O)/C=C/C(=O)N1CCC(Nc2nc(N)c(C(=O)c3c(F)cccc3F)s2)CC1

Same assay, conditions: concentration not given here

inhibition	Structure (SMILES)
71%	C/C=C/CCC(=O)N1CCC(Nc2nc(N)c(C(=O)c3c(F)cccc3F)s2)CC1
49%	CCC/C=C/CC(=O)N1CCC(Nc2nc(N)c(C(=O)c3c(F)cccc3F)s2)CC1
47%	Nc1nc(NC2CCN(C(=O)/C=C/c3ccccc3)CC2)sc1C(=O)c1c(F)cccc1F
48%	Nc1nc(NC2CCN(C(=O)C3CCC(=O)CC3)CC2)sc1C(=O)c1c(F)cccc1F
42%	CSCCC(=O)N1CCC(Nc2nc(N)c(C(=O)c3c(F)cccc3F)s2)CC1
78%	CC1(CCC(=O)N2CCC(Nc3nc(N)c(C(=O)c4c(F)cccc4F)s3)CC2)SCCS1
46%	CC/C=C/CC(=O)N1CCC(Nc2nc(N)c(C(=O)c3c(F)cccc3F)s2)CC1
50%	Nc1nc(NC2CCN(C(=O)c3ccccc3-n3cccc3)CC2)sc1C(=O)c1c(F)cccc1F
18%	CC(Oc1ccc(O)cc1)C(=O)N1CCC(Nc2nc(N)c(C(=O)c3c(F)cccc3F)s2)CC1 (stereo not given)
28%	Nc1nc(NC2CCN(C(=O)c3cccnc3)CC2)sc1C(=O)c1c(F)cccc1F
61%	COc1cccc(OCC(=O)N2CCC(Nc3nc(N)c(C(=O)c4c(F)cccc4F)s3)CC2)c1
47%	CCC(C)(O)CC(=O)N1CCC(Nc2nc(N)c(C(=O)c3c(F)cccc3F)s2)CC1 (stereo not given)
61%	N#Cc1ccccc1C(=O)N1CCC(Nc2nc(N)c(C(=O)c3c(F)cccc3F)s2)CC1
68%	Nc1nc(NC2CCN(C(=O)c3ccc(Cl)cc3F)CC2)sc1C(=O)c1c(F)cccc1F
21%	C=CCC(C)C(=O)N1CCC(Nc2nc(N)c(C(=O)c3c(F)cccc3F)s2)CC1 (stereo not given)
65%	Nc1nc(NC2CCN(C(=O)CCCc3cccs3)CC2)sc1C(=O)c1c(F)cccc1F
57%	Cc1ccc(OCC(=O)N2CCC(Nc3nc(N)c(C(=O)c4c(F)cccc4F)s3)CC2)cc1
49%	CN(C)C(=O)CCC(=O)N1CCC(Nc2nc(N)c(C(=O)c3c(F)cccc3F)s2)CC1
60%	Nc1nc(NC2CCN(C(=O)COc3ccc([N+](=O)[O-])cc3)CC2)sc1C(=O)c1c(F)cccc1F
50%	CC(=O)CC(=O)C(=O)N1CCC(Nc2nc(N)c(C(=O)c3c(F)cccc3F)s2)CC1
52%	Nc1nc(NC2CCN(C(=O)c3ccsc3)CC2)sc1C(=O)c1c(F)cccc1F
40%	Cn1ncc(C(=O)N2CCC(Nc3nc(N)c(C(=O)c4c(F)cccc4F)s3)CC2)c1[N+](=O)[O-]

inhibition	Structure (SMILES)
73%	Nc1nc(NC2CCN(C(=O)Cc3cccs3)CC2)sc1C(=O)c1c(F)cccc1F
65%	Nc1nc(NC2CCN(C(=O)c3cc(F)c(F)c(F)c3)CC2)sc1C(=O)c1c(F)cccc1F
67%	N#C/C(=C\c1ccccc1)C(=O)N1CCC(Nc2nc(N)c(C(=O)c3c(F)cccc3F)s2)CC1
-17%	CC(C)c1cc(C(C)C)c(S(=O)(=O)N2CCC(Nc3nc(N)c(C(=O)c4c(F)cccc4F)s3)CC2)c(C(C)C)c1
46%	Nc1nc(NC2CCN(C(=O)C3(O)CC3)CC2)sc1C(=O)c1c(F)cccc1F
33%	CSc1ncccc1C(=O)N1CCC(Nc2nc(N)c(C(=O)c3c(F)cccc3F)s2)CC1
-5%	COC(=O)CCCCC(=O)N1CCC(Nc2nc(N)c(C(=O)c3c(F)cccc3F)s2)CC1
77%	COc1cccc2cc(C(=O)N3CCC(Nc4nc(N)c(C(=O)c5c(F)cccc5F)s4)CC3)oc12
76%	Nc1nc(NC2CCN(C(=O)[C@H]3CCC(=O)O3)CC2)sc1C(=O)c1c(F)cccc1F
12%	CN(CC(=O)N1CCC(Nc2nc(N)c(C(=O)c3c(F)cccc3F)s2)CC1)C(=O)OC(C)(C)C
87%	Nc1nc(NC2CCN(C(=O)Cn3cnnn3)CC2)sc1C(=O)c1c(F)cccc1F
61%	Nc1nc(NC2CCN(C(=O)c3ccc(-n4cccc4)nc3)CC2)sc1C(=O)c1c(F)cccc1F
-2%	Nc1nc(NC2CCN(C(=O)C3CC3)CC2)sc1C(=O)c1c(F)cccc1F
47%	Nc1nc(NC2CCN(C(=O)Oc3ccc(F)cc3)CC2)sc1C(=O)c1c(F)cccc1F
45%	Cc1cc(Cl)ccc1C(=O)N1CCC(Nc2nc(N)c(C(=O)c3c(F)cccc3F)s2)CC1
-43%	CCN(CC)C(=O)N1CCC(Nc2nc(N)c(C(=O)c3c(F)cccc3F)s2)CC1
64%	Nc1nc(NC2CCN(C(=O)CN3C(=O)CSC3=S)CC2)sc1C(=O)c1c(F)cccc1F
25%	CCCCCCCC(CC)C(=O)N1CCC(Nc2nc(N)c(C(=O)c3c(F)cccc3F)s2)CC1 (stereo not given)
24%	Nc1nc(NC2CCN(C(=O)/C=C/c3cccc(Cl)c3)CC2)sc1C(=O)c1c(F)cccc1F
79%	CC1(C)OC(=O)CC1C(=O)N1CCC(Nc2nc(N)c(C(=O)c3c(F)cccc3F)s2)CC1 (stereo not given)
68%	C=CCCC(=O)N1CCC(Nc2nc(N)c(C(=O)c3c(F)cccc3F)s2)CC1
27%	Nc1nc(NC2CCN(C(=O)C3CCCO3)CC2)sc1C(=O)c1c(F)cccc1F (stereo not given)

inhibition	Structure (SMILES)
77%	CCOc1cccc(CC(=O)N2CCC(Nc3nc(N)c(C(=O)c4c(F)cccc4F)s3)CC2)c1
12%	COC(=O)CCC(=O)N1CCC(Nc2nc(N)c(C(=O)c3c(F)cccc3F)s2)CC1
-29%	CO[C@](C(=O)N1CCC(Nc2nc(N)c(C(=O)c3c(F)cccc3F)s2)CC1)(c1ccccc1)C(F)(F)F
57%	COc1ccc(OC)c(CC(=O)N2CCC(Nc3nc(N)c(C(=O)c4c(F)cccc4F)s3)CC2)c1
65%	Nc1ccc(C(=O)NCC(=O)N2CCC(Nc3nc(N)c(C(=O)c4c(F)cccc4F)s3)CC2)cc1
-25%	Nc1nc(NC2CCN(S(=O)(=O)c3ccc(Sc4ccncc4)cc3)CC2)sc1C(=O)c1c(F)cccc1F
-12%	COC(=O)C(=O)N1CCC(Nc2nc(N)c(C(=O)c3c(F)cccc3F)s2)CC1
9%	CC(=O)c1ccc(O)c(C(=O)N2CCC(Nc3nc(N)c(C(=O)c4c(F)cccc4F)s3)CC2)c1
7%	Nc1nc(NC2CCN(C(=O)CCC(=O)c3ccc(F)cc3)CC2)sc1C(=O)c1c(F)cccc1F
85%	CC/C=C\CC(=O)N1CCC(Nc2nc(N)c(C(=O)c3c(F)cccc3F)s2)CC1
44%	CCCSc1ncccc1C(=O)N1CCC(Nc2nc(N)c(C(=O)c3c(F)cccc3F)s2)CC1
-1%	CC1(C)C2CC[C@]1(CS(=O)(=O)N1CCC(Nc3nc(N)c(C(=O)c4c(F)cccc4F)s3)CC1)C(=O)C2
5%	CC(=O)/C=C/C(=O)N1CCC(Nc2nc(N)c(C(=O)c3c(F)cccc3F)s2)CC1
75%	NC(=S)Nc1cccc(C(=O)N2CCC(Nc3nc(N)c(C(=O)c4c(F)cccc4F)s3)CC2)c1
27%	CC(C)CCC(=O)N1CCC(Nc2nc(N)c(C(=O)c3c(F)cccc3F)s2)CC1
38%	COCCOCCOCC(=O)N1CCC(Nc2nc(N)c(C(=O)c3c(F)cccc3F)s2)CC1
17%	CCC(O)(CC)C(=O)N1CCC(Nc2nc(N)c(C(=O)c3c(F)cccc3F)s2)CC1
19%	CC(C)Oc1ccc(C(=O)N2CCC(Nc3nc(N)c(C(=O)c4c(F)cccc4F)s3)CC2)cc1
61%	Nc1nc(NC2CCN(C(=O)[C@@H](O)Cc3ccccc3)CC2)sc1C(=O)c1c(F)cccc1F
71%	Nc1nc(NC2CCN(C(=O)/C=C/c3ccccc3F)CC2)sc1C(=O)c1c(F)cccc1F
72%	Cc1cnc(C(=O)N2CCC(Nc3nc(N)c(C(=O)c4c(F)cccc4F)s3)CC2)cn1
38%	Cc1ccc(CCCC(=O)N2CCC(Nc3nc(N)c(C(=O)c4c(F)cccc4F)s3)CC2)cc1

inhibition	Structure (SMILES)
48%	Nc1nc(NC2CCN(C(=O)c3csc([N+](=O)[O-])c3)CC2)sc1C(=O)c1c(F)cccc1F
86%	Cc1ccnc(SCC(=O)N2CCC(Nc3nc(N)c(C(=O)c4c(F)cccc4F)s3)CC2)n1
-45%	CC(C)[C@@H]1CC[C@@H](C)C[C@H]1OC(=O)N1CCC(Nc2nc(N)c(C(=O)c3c(F)cccc3F)s2)CC1
55%	Nc1nc(NC2CCN(S(=O)(=O)c3ccc(CNC(=O)c4ccc(O)cc4)s3)CC2)sc1C(=O)c1c(F)cccc1F
65%	COC(=O)c1cccc(C(=O)N2CCC(Nc3nc(N)c(C(=O)c4c(F)cccc4F)s3)CC2)c1
80%	Nc1nc(NC2CCN(C(=O)/C=C/c3ccncc3)CC2)sc1C(=O)c1c(F)cccc1F
41%	N#Cc1ccc(/C=C/C(=O)N2CCC(Nc3nc(N)c(C(=O)c4c(F)cccc4F)s3)CC2)cc1
56%	COc1cc(N)ccc1/C=C/C(=O)N1CCC(Nc2nc(N)c(C(=O)c3c(F)cccc3F)s2)CC1
62%	COc1ccc(CC(=O)N2CCC(Nc3nc(N)c(C(=O)c4c(F)cccc4F)s3)CC2)cc1C
41%	CC(C)(CO)C(=O)N1CCC(Nc2nc(N)c(C(=O)c3c(F)cccc3F)s2)CC1
43%	CN(C)N=Nc1ccccc1C(=O)N1CCC(Nc2nc(N)c(C(=O)c3c(F)cccc3F)s2)CC1
71%	CCOc1ccccc1CC(=O)N1CCC(Nc2nc(N)c(C(=O)c3c(F)cccc3F)s2)CC1
-34%	Nc1nc(NC2CCN(C(=O)C(c3ccccc3)c3ccccc3)CC2)sc1C(=O)c1c(F)cccc1F
-5%	CC(=O)OC(C(=O)N1CCC(Nc2nc(N)c(C(=O)c3c(F)cccc3F)s2)CC1)c1ccccc1 (stereo not given)
70%	COc1cccc(CC(=O)N2CCC(Nc3nc(N)c(C(=O)c4c(F)cccc4F)s3)CC2)c1OC
52%	CC(C)c1ccc(/C=C/C(=O)N2CCC(Nc3nc(N)c(C(=O)c4c(F)cccc4F)s3)CC2)cc1
43%	Nc1nc(NC2CCN(C(=O)/C=C/c3cccs3)CC2)sc1C(=O)c1c(F)cccc1F
73%	COCCOCC(=O)N1CCC(Nc2nc(N)c(C(=O)c3c(F)cccc3F)s2)CC1
61%	Nc1nc(NC2CCN(C(=O)[C@@H](O)c3ccccc3)CC2)sc1C(=O)c1c(F)cccc1F
14%	C=CCC(C)(C)C(=O)N1CCC(Nc2nc(N)c(C(=O)c3c(F)cccc3F)s2)CC1
15%	Nc1nc(NC2CCN(C(=O)CCN3CCCCC3)CC2)sc1C(=O)c1c(F)cccc1F
31%	Cc1ccc(/C=C/C(=O)N2CCC(Nc3nc(N)c(C(=O)c4c(F)cccc4F)s3)CC2)c(C)c1
